Laboratory results from patent publication US10934275B2, “IRE1 small molecule inhibitors” (Cornell University, priority 2016, dated 2021).
Where a name gives a salt, the structure may show the parent alone.

What was measured:
[1] = target: T1, IRE1α (Homo sapiens, UniProt O75460); assay: In vitro FRET assay (XBP1 RNA probe cleavage by IRE1α); format: biochemical; set-up: purchased SignalChem; settings: SignalChem IRE1α protein 2 nM
Description: In vitro FRET assay was performed to evaluate the ability of select compounds to inhibit IRE1, the results of which are summarized in Table 5. To perform the in vitro FRET assay, 1× complete assay buffer (CAB; […], 50 mM sodium citrate pH 7.15, 1 mM magnesium acetate, 0.02% tween 20) was used to dilute SignalChem IRE1α protein to a final concentration of 2 nM. Selected compounds were serially diluted with DMSO in a non-binding black 384-well plate for a total of 15 ul in each well. 2 ul of the serially diluted compound or DMSO control were then added to new wells containing 98 ul of 1×CAB, for a total volume of 100 ul, 10 ul of which were then transferred to wells of a new plate. 5 ul of the diluted IRE1α was then added to each well. 5 ul of a […] XBP1 RNA probe was then added to each well. Fluorescence was then read over 30 minutes in kinetic mode (485/515 nm).
Two RNA probes were used, XBP1 wildtype (SEQ ID NO: 2) which is able to be spliced by active IRE1α or XBP1 mutant (SEQ ID NO: 3) which is unable to be spliced. Each probe contained a 5′ 6-FAM modification and a 3′ IOWA Black FQ modification.
A second FRET assay was performed to assess ATP-mediated inhibition. In this case, compounds and IRE1α were prepared and combined as discussed above, with the addition of ATP up to 1 mM final concentration. This mixture was incubated at room temperature for 60 minutes and then 5 ul of 400 nM XBP1 wildtype or mutant RNA probe was added. Plates were then read over 30 minutes in kinetic mode (485/515 nm).
Target sequence in this assay (O75460 468-977 limits assumed): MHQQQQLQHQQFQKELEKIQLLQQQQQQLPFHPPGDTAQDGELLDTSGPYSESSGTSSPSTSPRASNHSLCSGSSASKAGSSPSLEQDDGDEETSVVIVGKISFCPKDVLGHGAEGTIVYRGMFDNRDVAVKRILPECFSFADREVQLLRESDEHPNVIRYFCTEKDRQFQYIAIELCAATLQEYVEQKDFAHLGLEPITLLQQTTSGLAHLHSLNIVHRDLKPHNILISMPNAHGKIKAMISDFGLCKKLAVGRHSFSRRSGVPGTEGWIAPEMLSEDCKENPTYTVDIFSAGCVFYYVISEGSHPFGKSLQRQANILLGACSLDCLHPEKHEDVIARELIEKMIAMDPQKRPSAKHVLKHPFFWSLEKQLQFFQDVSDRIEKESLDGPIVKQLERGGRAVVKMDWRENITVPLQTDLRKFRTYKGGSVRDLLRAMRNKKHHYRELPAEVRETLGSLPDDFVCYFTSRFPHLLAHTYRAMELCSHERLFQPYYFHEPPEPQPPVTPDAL

[2] = target: T1, IRE1α; assay: IRE1α Endoribonuclease Nanoluciferase Assay (XBP1 luciferase reporter, 293T cells); format: cell-based; set-up: endogenous in cells; host or cells: 293T cells; settings: 293T cells transfected with XBP1 luciferase reporter plasmid, stressors +/- inhibitors
Description: Compounds disclosed herein were assessed for disruption of IRE-1 signaling using a IRE1α Endoribonuclease Nanoluciferase Assay. Briefly, 2.5×10^6 293T cells were seeded in a 10 cm^2 tissue culture plate. About 24 hours later, the cells were transfected with Effectene. In a 15 mL Tube, the following was added: 2 μg XBP1 luciferase reporter plasmid (PGK-Luc2-P2A-XBP1u-Nanoluciferase-PEST); 300 μl EC buffer; and 16 μl Enhancer, followed by incubation at room temp for 5 minutes. Next, 60 μl Effectene (Qiagen 301427) was added, followed by incubation at room temperature for 10 minutes. 2.6 mL cDMEM media was added. Old media was aspirated from the cells, followed by addition of 7 mL fresh media. Full transfection mixture was added dropwise to cells. Cells were incubated for 6 hours, followed by tripsinization, centrifugation and resuspension in 11 mL media. 100 uL of cells were plated per a well in a 96 well plate. A day later, stressors of choice +/− inhibitors were added. To harvest, media was aspirated from cells completely, then 50 uL 1× passive lysis buffer (Promega: E1941) was added per well and put on shaker (300 rpm) for 30 minutes at room temperature. Cells were centrifuged, and 15 uL sample per well was added to a new, opaque white 384 well plate (Corning 3570). 15 uL OneGlo (nanoluciferase kit, Promega N1630) was added. Plates were spun down, placed on shaker (300 rpm) for 10 minutes. Plates were read on luminometer, 1000 ms integration time per well. 15 uL Stop and Glo (nanoluciferase kit) was added. Plates were spun down, placed on shaker (300 rpm) for 10 minutes. Plates were read on luminometer, 1000 ms second integration time per well. Recordings are provided below in Table 6.
Target sequence in this assay (O75460 19-977): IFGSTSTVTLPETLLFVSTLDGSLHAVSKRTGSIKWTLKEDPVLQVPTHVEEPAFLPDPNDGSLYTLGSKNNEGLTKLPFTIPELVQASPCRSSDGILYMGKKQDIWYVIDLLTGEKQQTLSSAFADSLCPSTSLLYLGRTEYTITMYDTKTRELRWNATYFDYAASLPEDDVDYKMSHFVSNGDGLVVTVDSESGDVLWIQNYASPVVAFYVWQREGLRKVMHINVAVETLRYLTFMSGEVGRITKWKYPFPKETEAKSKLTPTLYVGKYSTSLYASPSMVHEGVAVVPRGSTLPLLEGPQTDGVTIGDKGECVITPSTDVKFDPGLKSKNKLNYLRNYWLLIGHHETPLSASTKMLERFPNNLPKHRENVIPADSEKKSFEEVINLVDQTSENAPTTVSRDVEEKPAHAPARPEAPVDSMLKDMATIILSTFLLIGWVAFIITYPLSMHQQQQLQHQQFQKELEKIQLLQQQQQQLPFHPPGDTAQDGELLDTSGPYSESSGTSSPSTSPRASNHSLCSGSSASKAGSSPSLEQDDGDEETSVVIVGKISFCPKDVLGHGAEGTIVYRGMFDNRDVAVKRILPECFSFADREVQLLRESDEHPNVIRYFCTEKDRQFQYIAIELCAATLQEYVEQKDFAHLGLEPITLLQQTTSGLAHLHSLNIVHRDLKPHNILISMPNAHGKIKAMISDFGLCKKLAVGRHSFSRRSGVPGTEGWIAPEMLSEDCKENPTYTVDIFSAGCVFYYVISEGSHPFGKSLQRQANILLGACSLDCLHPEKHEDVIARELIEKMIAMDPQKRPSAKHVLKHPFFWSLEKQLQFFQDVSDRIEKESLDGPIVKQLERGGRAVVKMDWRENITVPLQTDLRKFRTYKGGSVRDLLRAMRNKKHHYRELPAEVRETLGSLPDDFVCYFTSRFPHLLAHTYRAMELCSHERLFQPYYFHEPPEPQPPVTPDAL

Row | Structure (SMILES) | EC50 [1] | EC50 [2]
1 | CN1CCN(Cc2ccc(NC(=O)Nc3cc(-c4ccc5nc(NC6CCNCC6)ncc5c4)n(C)n3)cc2C(F)(F)F)CC1 [2; TFA] | ≤ 5 nM | > 100 nM
2 | CN1CCN(Cc2ccc(NC(=O)Nc3cc(-c4ccc5cc(NC6CCCCC6)ncc5c4)n(C)n3)cc2C(F)(F)F)CC1 [4; TFA] | > 100 nM | –
3 | CN1CCN(Cc2ccc(NC(=O)Nc3cc(-c4ccc5nc(NC6CCCCC6)ncc5c4)n(C)n3)cc2C(F)(F)F)CC1 [Compound 5, 1-(5-(2-(cyclohexylamino)quinazolin-6-yl)-1-methyl-1H-pyrazol-3-yl)-3-(4-((4-methylpiperazin-1-yl)methyl)-3-(trifluoromethyl)phenyl)urea] | > 100 nM | > 100 nM
4 | Cc1cc(-c2cc(NC(=O)Nc3ccc(CN4CCN(C)CC4)c(C(F)(F)F)c3)nn2C)cc2cnc(N)nc12 [Compound 12, 1-(5-(2-amino-8-methylquinazolin-6-yl)-1-methyl-1H-pyrazol-3-yl)-3-(4-((4-methylpiperazin-1-yl)methyl)-3-(trifluoromethyl)phenyl)urea] | 5 to 50 nM | > 100 nM
5 | CCc1cc(-c2cc(NC(=O)Nc3ccc(CN4CCN(C)CC4)c(C(F)(F)F)c3)nn2C)cc2cnc(N[C@H]3CC[C@H](N)CC3)nc12 [Compound 31, 1-(5-(2-(((1r,4r)-4-aminocyclohexyl)amino)-8-ethylquinazolin-6-yl)-1-methyl-1H-pyrazol-3-yl)-3-(4-((4-methylpiperazin-1-yl)methyl)-3-(trifluoromethyl)phenyl)urea] | ≤ 5 nM | ≤ 5 nM
